In ChEMBL document CHEMBL1142620, “Anthraquinones and betaenone derivatives from the sponge-associated fungus Microsphaeropsis species: novel inhibitors of protein kinases” (J Nat Prod, 2000) one finds IC50 data, which are given here for five molecules.

In assay [1] the target is Epidermal growth factor receptor (Homo sapiens, UniProt P00533). Nature of the assay: Inhibition of human recombinant EGFR kinase expressed in Sf9 insect cells.
The target of assay [2] is Cyclin-dependent kinase 4/cyclin D1 (Homo sapiens, UniProt P11802). The experiment in a line: Inhibition of human recombinant CDK4/cyclin D1 kinase expressed in Sf9 insect cells.
In assay [3] the target is T1, Protein kinase C epsilon type (Mus musculus, UniProt P16054).
T1 sequence (P16054 whole entry): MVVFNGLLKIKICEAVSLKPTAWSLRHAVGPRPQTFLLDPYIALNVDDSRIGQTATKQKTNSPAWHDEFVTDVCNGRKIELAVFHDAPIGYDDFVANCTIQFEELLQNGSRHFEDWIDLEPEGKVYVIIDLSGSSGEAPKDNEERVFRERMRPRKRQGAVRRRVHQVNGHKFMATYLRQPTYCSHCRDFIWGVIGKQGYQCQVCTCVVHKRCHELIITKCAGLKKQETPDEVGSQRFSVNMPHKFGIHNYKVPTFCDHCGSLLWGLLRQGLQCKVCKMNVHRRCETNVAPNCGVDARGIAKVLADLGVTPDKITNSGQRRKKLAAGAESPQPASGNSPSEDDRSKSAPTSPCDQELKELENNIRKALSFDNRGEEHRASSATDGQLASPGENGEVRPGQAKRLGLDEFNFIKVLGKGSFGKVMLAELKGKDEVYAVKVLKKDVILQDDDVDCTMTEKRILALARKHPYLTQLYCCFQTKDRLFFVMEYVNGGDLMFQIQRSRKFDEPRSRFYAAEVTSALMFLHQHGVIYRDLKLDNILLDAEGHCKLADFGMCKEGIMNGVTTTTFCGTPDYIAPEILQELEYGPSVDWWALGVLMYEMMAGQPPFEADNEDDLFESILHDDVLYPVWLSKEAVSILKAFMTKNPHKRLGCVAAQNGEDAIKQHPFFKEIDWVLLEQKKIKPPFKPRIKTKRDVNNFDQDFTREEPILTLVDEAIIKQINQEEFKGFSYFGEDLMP
Nature of the assay: Inhibition of mouse recombinant PKCepsilon expressed in Sf9 insect cells.

What is called IC50 is the midpoint of a concentration-inhibition curve.

Chain of Epidermal growth factor receptor (P00533 whole entry): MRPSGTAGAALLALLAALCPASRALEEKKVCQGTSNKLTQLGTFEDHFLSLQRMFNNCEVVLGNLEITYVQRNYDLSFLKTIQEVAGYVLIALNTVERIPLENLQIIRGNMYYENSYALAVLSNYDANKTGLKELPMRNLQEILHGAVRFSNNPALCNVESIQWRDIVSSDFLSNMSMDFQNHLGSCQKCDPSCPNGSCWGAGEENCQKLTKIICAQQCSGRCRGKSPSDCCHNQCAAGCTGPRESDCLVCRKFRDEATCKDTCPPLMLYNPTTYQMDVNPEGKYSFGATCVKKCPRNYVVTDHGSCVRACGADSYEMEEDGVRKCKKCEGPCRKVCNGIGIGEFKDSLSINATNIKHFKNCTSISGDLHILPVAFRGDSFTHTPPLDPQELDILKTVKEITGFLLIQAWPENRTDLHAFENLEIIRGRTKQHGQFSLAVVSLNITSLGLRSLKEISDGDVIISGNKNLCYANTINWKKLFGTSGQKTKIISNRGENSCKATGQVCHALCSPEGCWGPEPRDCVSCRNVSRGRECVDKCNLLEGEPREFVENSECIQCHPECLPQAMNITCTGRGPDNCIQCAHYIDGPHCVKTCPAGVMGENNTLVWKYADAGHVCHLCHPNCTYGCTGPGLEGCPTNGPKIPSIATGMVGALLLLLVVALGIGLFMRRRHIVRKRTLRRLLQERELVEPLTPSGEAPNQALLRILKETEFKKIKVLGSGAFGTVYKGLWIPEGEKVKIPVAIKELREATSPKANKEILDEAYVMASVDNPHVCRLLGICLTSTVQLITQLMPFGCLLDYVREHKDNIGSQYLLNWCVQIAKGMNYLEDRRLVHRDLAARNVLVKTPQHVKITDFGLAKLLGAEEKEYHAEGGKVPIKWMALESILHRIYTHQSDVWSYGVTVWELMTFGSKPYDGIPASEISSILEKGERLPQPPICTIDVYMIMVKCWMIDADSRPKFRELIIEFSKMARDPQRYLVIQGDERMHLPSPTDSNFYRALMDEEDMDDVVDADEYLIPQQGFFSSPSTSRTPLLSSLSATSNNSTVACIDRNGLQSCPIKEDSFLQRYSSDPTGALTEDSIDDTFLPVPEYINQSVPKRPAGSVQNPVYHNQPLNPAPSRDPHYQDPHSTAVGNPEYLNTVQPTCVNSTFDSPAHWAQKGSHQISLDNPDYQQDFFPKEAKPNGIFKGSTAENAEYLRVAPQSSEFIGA
Chain of Cyclin-dependent kinase 4/cyclin D1 (P11802 whole entry): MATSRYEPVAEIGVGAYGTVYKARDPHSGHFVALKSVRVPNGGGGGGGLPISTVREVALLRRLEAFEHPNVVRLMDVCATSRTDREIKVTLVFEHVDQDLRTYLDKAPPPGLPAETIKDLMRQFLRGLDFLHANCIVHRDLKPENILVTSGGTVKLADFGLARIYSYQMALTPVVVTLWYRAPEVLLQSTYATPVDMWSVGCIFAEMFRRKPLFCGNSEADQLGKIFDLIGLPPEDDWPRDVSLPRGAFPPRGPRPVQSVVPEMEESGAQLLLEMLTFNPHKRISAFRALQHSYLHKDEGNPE
Chain of Cyclin-dependent kinase 4/cyclin D1 (P24385 whole entry, further chain): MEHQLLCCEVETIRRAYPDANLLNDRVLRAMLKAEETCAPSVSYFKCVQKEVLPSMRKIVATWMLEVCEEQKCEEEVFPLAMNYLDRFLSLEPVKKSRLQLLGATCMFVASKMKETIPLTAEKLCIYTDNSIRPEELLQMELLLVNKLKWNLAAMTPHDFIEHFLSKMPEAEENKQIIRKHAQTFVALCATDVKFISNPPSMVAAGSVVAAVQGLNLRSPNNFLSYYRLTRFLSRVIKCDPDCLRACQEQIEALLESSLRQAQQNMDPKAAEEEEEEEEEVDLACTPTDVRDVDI

Turning to `C[C@@H](O)c1c(O)cc2c(c1O)C(=O)c1c(O)cc(O)cc1C2=O`, the IC50 in assay [1] stood at 37.5 µM; in assay [2], 43.5 µM; in assay [3], 18.5 µM.

Consider `CCC(C)[C@@H]1[C@@](C)(C(=O)/C=C/N(c2ccccc2)c2ccc3ccccc3c2)[C@H]2[C@H](C)C[C@@](C)(O)C[C@]2(O)C(=O)[C@@]1(C)O` (stereo not given in full), for which the IC50 in assay [1], in assay [2] and in assay [3] was greater than 100 µM in each case.

For the molecule `CCC(C)[C@@H]1[C@@](C)(C(=O)/C=C/OC)[C@H]2[C@H](C)C[C@@](C)(O)C[C@]2(O)C(=O)[C@@]1(C)O` (stereo not given in full), the values for the IC50 in assay [1], in assay [2] and in assay [3] were 10.5 µM, 11.5 µM and 36 µM, respectively.

Consider `CO[C@H](C)c1c(O)cc2c(c1O)C(=O)c1c(cc(O)c(O)c1O)C2=O`, for which the IC50 in assay [1] was found to be 41 µM; in assay [2], 37.5 µM; in assay [3] it was 54 µM.

On to `CO[C@H](C)c1c(O)cc2c(c1O)C(=O)c1c(O)cc(O)cc1C2=O`, for which the IC50 was found to be 27.5 µM in assay [1], 22.5 µM in assay [2] and 27 µM in assay [3].
